Data: US20230138984A1, “HA-PACLITAXEL CONJUGATE FOR TREATMENT OF MESOTHELIOMA” (FIDIA FARMACEUTICI S.p.A., priority 2020, published 2023)
In brackets after ≈: the same amount, converted by molar mass. Where two headings read alike, the source gives them in different places.

Legend:
H2452 cells = test: MTT cytotoxicity assay on mesothelioma cell line H2452; settings: Homo sapiens, NCI-H2452, 48 h, read-out: Normalized IC50
[1] = tested on: human mesothelioma H2052 cells; settings: for average luminescence of tumor zone: weekly, order of magnitude, compared with untreated 1x10^12 on the 100° day
Excerpt: The cell lines of human mesothelioma H2052 were transduced with a lentiviral vector (method by which the genes can be inserted into cells using the lentivirus) containing a bidirectional promoter allowing the high and coordinated expression of two reporter genes for the synthesis of luciferase and eGFP (enhanced Green Fluorescent Protein), as described in Amendola et al., Nat Biotechnol 2005, 23:108-16: luciferase is an enzyme that catalyzes the oxidation of luciferin which oxidizing emits energy ([…]) in the form of light radiation and such reaction has an ultra-high sensitivity; the eGFP derives from the jellyfish Aequorea victoria, and it is capable of emitting bright green light when exposed to certain wavelengths; both such proteins are used below as a “marker system” for human mesothelioma cells H2052 transduced as above, in order to identify the tumor mass that is formed in animals injected with such cells and to determine its dimensions and the growth over time through suitable bioluminescence sensor.
Cells were incubated for 6 hours in a mixture of complete medium (RPMI + 10% FBS, 1% HEPES, L-glutamine and penicillin/streptomycin) containing the above-mentioned vector and protamine sulphate. At the end of 6 hours of incubation, supernatants were re-integrated with complete medium. After 5 days, the effect of the transduction was evaluated through flow cytometry.
Cells were then expanded and sub-divided in order to isolate the population with the higher expression of reporter genes.
All treated animals were monitored through detection of bioluminescence emitted by their tumor zone treated with HA-paclitaxel conjugate, in order to assess over time, the dimension (and therefore the growth) of the tumor with reference to animals untreated with any chemotherapeutic agent and to those treated with non-conjugated paclitaxel.

H28 cells = test: MTT cytotoxicity assay on mesothelioma cell line H28; settings: Homo sapiens, NCI-H28, 48 h, read-out: Normalized IC50
H2052 cells = test: MTT cytotoxicity assay on mesothelioma cell line H2052; settings: Homo sapiens, NCI-H2052, 48 h, read-out: Normalized IC50

For CC(=O)O[C@H]1C(=O)[C@@]2(C)[C@H]([C@H](OC(=O)c3ccccc3)[C@]3(O)C[C@H](OC(=O)[C@H](O)[C@@H](NC(=O)c4ccccc4)c4ccccc4)C(C)=C1C3(C)C)[C@]1(OC(C)=O)CO[C@@H]1C[C@@H]2O [paclitaxel], the IC50 (H2452 cells) was 0.8 µg/mL (≈ 0.937 µM), the “average luminescence of tumor zone” value ([1]; 2° sample: 10 mg/Kg iv for 3 treatments then ip) was ~1x10^11 Ph/sec and the “average luminescence of tumor zone” value ([1]; 3° sample: 10 mg/Kg ip) was ~1x10^11 Ph/sec. The “bioluminescence emitted by treated tumor zone” value ([1]; non-conjugated paclitaxel 10 mg/Kg, after 139 days of observation (FIG. 2)) was “around 12x10^11 Ph/sec”, the IC50 (H28 cells) was 0.787 µg/mL (≈ 0.922 µM) and the IC50 (H2052 cells) was 0.225 µg/mL (≈ 0.263 µM).
